Measurements from US6686334B2, “Use of inhibitors of protein kinase C epsilon to treat pain” (Regents of the University of California, priority 1998, dated 2004).
“Also recorded” adds a separate entry of the source. Read-outs that look alike come from different tables or passages of the source.

What was measured:
[1] = system: prolonged PGE2-induced hyperalgesia; experiment: Prolonged hyperalgesia in carrageenan-sensitized rats (chronic inflammatory pain model); format: in vivo, rat; conditions: 1 μg at the same time as carrageenan; PGE2 72 or more hours later
Excerpt: In order to investigate the role, if any, of PKCε in chronic inflammatory pain, the following model system for chronic inflammatory pain was developed. Rats received intradermal hind paw injections of carrageenan, an inflammatory agent. […] This was considered an acute response to the carrageenan-induced inflammation. Although administration of Prostaglandin E2 (“PGE2”), 5-hydroxytryptamine (“5-HT,” serotonin) or CGS-21680 (an adenosine A2-selective receptor agonist) normally causes untreated rats (that is, rats that have not received carrageenan injections) to experience hyperalgesia lasting up to 6 hours, the hyperalgesia experienced by carrageenan-sensitized rats following administration of any one of these substances lasted up to 24 hours.
The prolonged PGE2-induced hyperalgesia normally seen in carrageenan-sensitized rats was inhibited by administration of BIM or εV1-2.
To examine whether protein kinase C modulates the processes by which a brief inflammatory event causes prolonged hyperalgesia many days later, rats received carrageenan and 1 μg BIM injections at the same time. Hyperalgesia was measured 72 hours later, when the rats were treated PGE2. […]

[2] = system: diabetes-induced hyperalgesia; experiment: Streptozotocin diabetes-induced hyperalgesia, mechanical stimuli; format: in vivo, rat; conditions: 1 μg intradermal after sterile water, four weeks after streptozotocin 70 mg/kg
Method: Persons with uncontrolled or poorly controlled diabetes frequently experience hyperalgesia. The role of PKCε in diabetic neuropathy was examined in a model of diabetes in which male Sprague-Dawley rats receive subcutaneous injection of streptozotocin (70 mg/kg), a pancreatic β-cell toxin. These rats display hyperglycemia and glucosuria within 24 hours after the injection and show decreased nociceptive thresholds in response to mechanical stimuli administered by Ugo Basile analgesymeter in the hind paw after one week (Ahlgren, S. C. et al, J. Neurophysiology, 68, 2077-2085 (1992); Ahlgren, S. C. and Levine, J. D., Neuroscience 52, 1049-1055 (1993)). Four weeks after the streptozotocin injection, each rat received no treatment (n=8) or an intradermal injection of sterile water followed by a intradermal injections of (1) 1 μg bisindolymaleimide, a protein kinase C inhibitor (n=4; labeled “BIM” on FIG. 12B), (2) 1 μg εV1-2, a PKCε inhibitory peptide (n=8; labeled “PKCεI” on FIG. 12B), or (3) 1 μg S-VεV1-2, a scrambled version of the εV1-2 peptide (n=4; labeled “PCKεI SCR” on FIG. 12B) and were subsequently exposed to mechanical stimuli.

[3] = system: isoproterenol-induced hyperalgesia; experiment: Isoproterenol-induced mechanical hyperalgesia, paw withdrawal threshold; format: in vivo, rat; conditions: for Effect on isoproterenol-induced hyperalgesia: rat hindpaw, intradermal
[4] = system: tetrodotoxin-resistant sodium current (TTX-RINa); format: cell-based, rat; conditions: for Effect on epinephrine-induced potentiation of TTX-RINa: 1 μM epinephrine, propranolol 2 μM, phentolamine 5 μM, Rp-cAMPs 100 μM, BIM 100 μM
[5] = system: PGE2-induced hyperalgesia; experiment: PGE2-induced mechanical hyperalgesia, paw withdrawal threshold; format: in vivo, rat; conditions: PGE2 100 ng; for Effect on PGE2-induced hyperalgesia: rat hindpaw, mechanical stimulus
Method: The roles of PKC, protein kinase A (“PKA”) and the μ-opioid receptor in mediating epinephrine-induced hyperalgesia were assessed by measuring the effects of: Rp-adenosine 3′, 5′-cyclic monophosphate (“Rp-cAMPs”) and WIPTIDE, both inhibitors of PKA; SQ22536, an inhibitor of adenylyl cyclase, an enzyme activated by PKA; bisindolymaleimide (“BIM”), a nonselective inhibitor of PKC isozymes; and [D-Ala^2, N-Me-Phe^4, Gly^5-ol]-enkephalin (“DAMGO”), μ-opioid receptor agonist. The dose for each inhibitor was 1 μg, except for WIPTIDE, which was administered in a 100 ng dose. DAMGO was co-injected with epinephrine whereas the other inhibitors were applied 15 minutes prior to epinephrine injection.
For mechanical nociceptive testing, the nociceptive flexion reflex was quantified using an Ugo Basile analgesymeter that applies a constantly increasing force measured in grams (Stoelting, Chicago, Ill.; K. O. Aley, J. D. Levine, J. Neurosci. 17, 8018-23 (1997)). The mean basal mechanical threshold for rats used in these experiments was 105.3+/−2.8 grams. The effects of hyperalgesia-inducing agents epinephrine (100 ng) and PGE2 (100 ng) on mechanical nociceptive thresholds were determined by measuring paw withdrawal frequencies at 15, 20, and 25 minutes after administration of the hyperalgesic agent and then calculating the mean of these three readings.

[6] = system: carrageenan-induced hyperalgesia; experiment: Carrageenan-induced acute hyperalgesia, mechanical stimuli; format: in vivo, rat; conditions: 1 μg injected at the same time as carrageenan
Method: The acetic acid writhing experiments reported in Example 3 indicate that PKCε contributes to inflammatory pain. To investigate whether PKCε mediates hyperalgesia induced by other inflammatory agents, rats received intradermal 10 μl injections of a 1% solution of carrageenan, a potent irritant (Ferreira, S. H. et al, Nature 334, 698-700 (1988)) and three and a half hours later, the rats received no treatment (n=12; labeled “Car-4” on FIG. 13) or intradermal injections of sterile water followed by intradermal injections of either 1 μg εV1-2, a PKCε inhibitory peptide (n=6; labeled “εV” on FIG. 13), or 1 μg S-VεV1-2, a scrambled version of the εV1-2 peptide (n=6; labeled “S-εV” on FIG. 13).
To examine whether protein kinase C modulates the processes by which a brief inflammatory event causes prolonged hyperalgesia many days later, rats received carrageenan and 1 μg BIM injections at the same time. Hyperalgesia was measured 72 hours later, when the rats were treated PGE2. […] Therefore, administration of an inhibitor of PKC either at approximately the same time as the inflammatory agent giving rise to chronic, prolonged hyperalgesia or at about the same time as the hyperalgesia-inducing stimulus can lessen such chronic hyperalgesia.

[7] = system: epinephrine-induced hyperalgesia; experiment: Epinephrine-induced mechanical hyperalgesia, paw withdrawal threshold (Ugo Basile Analgesimeter); format: in vivo, rat; conditions: for Percentage decrease in nociceptive threshold in response to epinephrine: epinephrine 100 ng, DAMGO, SQ22536, BIM, Rp-cAMPs 1 μg, WIPTIDE 0.1 μg, larger value = more hyperalgesia; for Effect on epinephrine-induced hyperalgesia: rat hindpaw, intradermal, mechanical stimulus
Method: The roles of PKC, protein kinase A (“PKA”) and the μ-opioid receptor in mediating epinephrine-induced hyperalgesia were assessed by measuring the effects of: Rp-adenosine 3′, 5′-cyclic monophosphate (“Rp-cAMPs”) and WIPTIDE, both inhibitors of PKA; SQ22536, an inhibitor of adenylyl cyclase, an enzyme activated by PKA; bisindolymaleimide (“BIM”), a nonselective inhibitor of PKC isozymes; and [D-Ala^2, N-Me-Phe^4, Gly^5-ol]-enkephalin (“DAMGO”), μ-opioid receptor agonist. The dose for each inhibitor was 1 μg, except for WIPTIDE, which was administered in a 100 ng dose.

[8] = system: vincristine-induced hyperalgesia; experiment: Vincristine-induced hyperalgesia, mechanical stimuli (Ugo Basile analgesymeter); format: in vivo, rat; conditions: vincristine 100 μg/kg intravenously daily, after the second day
Method: (§1) Humans undergoing chemotherapy frequently experience hyperalgesia. Vincristine is a chemotherapeutic drug known to cause such hyperalgesia, and a rat model of vincristine-induced hyperalgesia was established as follows. Vincristine (100 μg/kg in saline; Sigma Chemical Catalog) was administered intravenously daily to each of 32 rats over a period of two weeks.
To determine whether administration of an inhibitor of PKCε would lessen vincristine-induced hyperalgesia in the rat model described above, on the 13th day of vincristine treatment, rats received no treatment (n=16) or intradermal injections of sterile water followed by intradermal injections of either 1 μg εV1-2, a PKCε inhibitory peptide (n=8; labeled “PKCεI” on FIG. 12A), or 1 μg S-VεV1-2, a scrambled version of the εV1-2 peptide (n=8; labeled “PCKεI SCR” on FIG. 12A), 20-30 minutes before administration of a mechanical stimulus.

[9] = Rotorod analysis of motor deficits; format: in vivo, rat; conditions: vincristine 100 μg/kg intravenously daily
Method: as §1

wild-type mice = experiment: von Frey hair paw withdrawal frequency in mice; format: in vivo, mouse; conditions: 100 ng intraplantar, wild-type mice, 4, 6.9 or 14.8 grams
Method: Mechanical, thermal and chemical nociception were evaluated in wild-type and PKCε-mutant mice. For both wild-type (n=8) and PKCε-mutant (n=8) mice, the basal mechanical nociceptive threshold was measured as the frequency at which mice withdrew their paws after being poked in the hindpaw with a von Frey Hair (“VFH”; Stoelting Co.) applying a force of 4, 6.9 or 14.8 grams.

[10] = system: PGE2-induced hyperalgesia; conditions: PGE2 100 ng; inhibitor 1 μg; data from Khasar 1995 or Taiwo and Levine 1991; cited from earlier work
[11] = system: small diameter DRG neurons; experiment: Current-clamp (perforated-patch whole-cell) excitability of cultured DRG neurons; format: cell-based, rat
[12] = system: PGE2-induced hyperalgesia; conditions: earlier studies; cited from earlier work
[13] = system: formalin-induced hyperalgesia; conditions: earlier studies; cited from earlier work
[14] = similar dose, normal rat, earlier studies; cited from earlier work
[15] = after 1 μg epinephrine injection
[16] = 10 μM propranolol 30 seconds prior to and with 1 μM epinephrine

CN(C)CCCn1cc(C2=C(c3c[nH]c4ccccc34)C(=O)NC2=O)c2ccccc21 [BIM, bisindolymaleimide I]
Effect on prolonged hyperalgesia on PGE2 treatment after carrageenan [1]: attenuated | Effect on diabetes-induced decrease in nociceptive threshold [2]: somewhat greater reduction in the percentage decrease in nociceptive threshold than PKCε I; also recorded: markedly reduced | Percentage decrease in nociceptive threshold in response to isoproterenol ([3]; isoproterenol 100 ng, BIM 1 μg, WIPTIDE 0.1 μg): 7.1 ± 2.4 % | Effect on isoproterenol-induced hyperalgesia [3]: significantly attenuated | Effect on epinephrine-induced potentiation of TTX-RINa [4]: significantly decreased | Percentage decrease in nociceptive threshold in response to PGE2 ([5]; BIM 1 μg, WIPTIDE 0.1 μg): 33.4 ± 4.1% | Effect on PGE2-induced hyperalgesia [5]: no effect | Effect on acute hyperalgesia induced by carrageenan [6]: attenuated | Percentage decrease in nociceptive threshold in response to epinephrine [7]: 4.6 ± 2.1 % | Effect on epinephrine-induced hyperalgesia [7]: inhibits epinephrine-induced hyperalgesia to a similar extent as εV1-2

CC[C@]1(O)C[C@H]2CN(CCc3c([nH]c4ccccc34)[C@@](C(=O)OC)(c3cc4c(cc3OC)N(C=O)[C@H]3[C@@](O)(C(=O)OC)[C@H](OC(C)=O)[C@]5(CC)C=CCN6CC[C@]43[C@@H]65)C2)C1 [Vincristine]
Effect on mechanical nociceptive thresholds [8]: acute dose-dependent decrease | Motor deficits [9]: did not show any significant motor deficits

CNC[C@H](O)c1ccc(O)c(O)c1 [Epinephrine, epinephrine]
Percent-withdrawal response to VFH stimulus (wild-type mice): dramatically increased | Effect on TTX-RINa ([4]; epinephrine 1 μM): marked potentiation | Duration of hyperalgesia [7, 15]: approximately 2 hours | Onset latency of hyperalgesia (significant) [7, 15]: 2 min | Time to peak hyperalgesic effect [7, 15]: ≤ 5 min | Effect on paw withdrawal threshold ([7]; intradermal 1 ng to 1 μg, dorsal hindpaw): dose-dependent decrease

CCCCC[C@H](O)/C=C/[C@H]1[C@H](O)CC(=O)[C@@H]1C/C=C\CCCC(=O)O [PGE2, prostaglandin E2]
Percent-withdrawal response to VFH stimulus (wild-type mice): dramatically increased

Nc1ncnc2c1ncn2[C@@H]1O[C@@H]2CO[P@@](O)(=S)O[C@H]2[C@H]1O [Rp-cAMPs, Rp-adenosine 3′, 5′-cyclic monophosphate]
Effect on epinephrine-induced potentiation of TTX-RINa [4]: abolished

CC(C)NCC(O)c1ccc(O)c(O)c1 (stereo not shown) [Isoproterenol, isoproterenol]
Hyperalgesia produced in the absence of epinephrine ([3]; intradermal injection): dose-dependent hyperalgesia | Percentage decrease in nociceptive threshold in response to isoproterenol alone ([3]; isoproterenol 100 ng alone): 25.8 ± 0.9%

Nc1ncnc2c1ncn2C1CCCO1 (stereo not shown) [SQ22536]
Percentage decrease in nociceptive threshold in response to PGE2 [10]: 10.0 ± 2.9 % | Percentage decrease in nociceptive threshold in response to epinephrine [7]: 9.5 ± 2.4 %

WIPTIDE
Effect on isoproterenol-induced hyperalgesia [3]: almost completely abolished | Effect on PGE2-induced hyperalgesia [5]: significantly attenuated

COc1ccc2c(c1)c(CC(=O)O)c(C)n2C(=O)c1ccc(Cl)cc1 [indomethacin]
Effect on epinephrine-induced hyperalgesia [7]: Neither indomethacin treatment nor sympathectomy had any effect

CC(C)NCC(O)COc1cccc2ccccc12 (stereo not shown) [propranolol]
Effect on isoproterenol-induced hyperalgesia [3]: significantly attenuated | Effect on epinephrine-induced potentiation of TTX-RINa [4]: eliminated this potentiation | First-spike latency after epinephrine addition [11, 16]: 233 ± 10 ms | Spike number after epinephrine addition [11, 16]: 1.3±0.2 | Effect on epinephrine-induced increase in spike number and decrease in first-spike latency ([11]; 10 μM propranolol, 1 μM epinephrine): abolished | Effect on epinephrine-induced hyperalgesia [7]: significantly attenuated

Cc1ccc(N(CC2=NCCN2)c2cccc(O)c2)cc1 [phentolamine]
Effect on the ability of rolipram to prolong PGE2-induced hyperalgesia [12]: inhibited | Effect on formalin-induced hyperalgesia [13]: significantly reversed | Effect on basal paw threshold [14]: no effect | Effect on epinephrine-induced hyperalgesia [7]: did not significantly affect
